Tested on: diabetic patients (type 1 and type 2 diabetes mellitus)
Assay: Research Plan 2: therapy of diabetes mellitus targeting a bone marrow-derived abnormal hematopoietic stem cell
Type: in vivo, human
Settings: type 1 and type 2 diabetic patients; twelve weeks of therapy; predicted result

In the case of insulin [insulin alone], the “Effect of eliminating an abnormal hematopoietic stem cell” value is reported as “not eliminated”, the “Effect of healing diabetes mellitus” value is reported as “not observed” and the “Therapeutic effect on a complication” value is reported as “observed to some extent, but the complication does not heal”.
